Data as given in ChEMBL document CHEMBL2424607, “Synthesis, characterization, and computational studies on phthalic anhydride-based benzylidene-hydrazide derivatives as novel, potential anti-inflammatory agents” (2013).

Legend:
Assay type in all cases: functional
Rattus norvegicus [1] = test: Antiinflammatory activity against carrageenan-induced paw edema rat model assessed as inhibition of hind paw swelling administered 1 hr before carrageenan challenge measured after 3 hrs by plethysmometer relative to control
Mus musculus [2] = species: Mus musculus; test: Analgesic activity in Swiss albino mouse assessed as duration of thermal-stimulus induced tail flick latency after 90 mins by tail immersion method (reference value: 3.87 +/- 0.10 seconds)
Mus musculus [3] = species: Mus musculus; test: Analgesic activity in Swiss albino mouse assessed as duration of thermal-stimulus induced tail flick latency after 60 mins by tail immersion method (reference value: 3.01 +/- 0.04 seconds)
Rattus norvegicus [4] = test: Antiinflammatory activity against carrageenan-induced paw edema rat model assessed as inhibition of hind paw swelling administered 1 hr before carrageenan challenge measured after 2 hrs by plethysmometer relative to control
Rattus norvegicus [5] = test: Antiinflammatory activity against carrageenan-induced paw edema rat model assessed as inhibition of hind paw swelling administered 1 hr before carrageenan challenge measured after 1 hr by plethysmometer relative to control
Mus musculus [6] = species: Mus musculus; test: Analgesic activity in Swiss albino mouse assessed as duration of thermal-stimulus induced tail flick latency after 30 mins by tail immersion method (reference value: 2.13 +/- 0.03 seconds)
Rattus norvegicus [7] = test: Antiinflammatory activity against carrageenan-induced paw edema rat model assessed as inhibition of hind paw swelling at 10 mg/kg administered 1 hr before carrageenan challenge measured after 3 hrs by plethysmometer relative to control
Mus musculus [8] = test: Analgesic activity in Swiss albino mouse assessed as duration of thermal-stimulus induced tail flick latency at 10 mg/kg after 60 mins by tail immersion method (reference value: 3.01 +/- 0.04 seconds)
Rattus norvegicus [9] = test: Antiinflammatory activity against carrageenan-induced paw edema rat model assessed as inhibition of hind paw swelling at 10 mg/kg administered 1 hr before carrageenan challenge measured after 2 hrs by plethysmometer relative to control
Mus musculus [10] = test: Analgesic activity in Swiss albino mouse assessed as duration of thermal-stimulus induced tail flick latency at 10 mg/kg after 30 mins by tail immersion method (reference value: 2.13 +/- 0.03 seconds)
Mus musculus [11] = test: Analgesic activity in Swiss albino mouse assessed as duration of thermal-stimulus induced tail flick latency at 10 mg/kg after 90 mins by tail immersion method (reference value: 3.87 +/- 0.10 seconds)
Rattus norvegicus [12] = test: Antiinflammatory activity against carrageenan-induced paw edema rat model assessed as inhibition of hind paw swelling at 10 mg/kg administered 1 hr before carrageenan challenge measured after 1 hr by plethysmometer relative to control

SMILES	inhibition (INH) (Rattus norvegicus [1])	Time (Mus musculus [2])	Time (Mus musculus [3])	inhibition (INH) (Rattus norvegicus [4])	inhibition (INH) (Rattus norvegicus [5])	Time (Mus musculus [6])	inhibition in vivo at 10 mg/kg (Rattus norvegicus [7])	Time (Mus musculus [8])	inhibition in vivo at 10 mg/kg (Rattus norvegicus [9])	Time (Mus musculus [10])	Time (Mus musculus [11])	inhibition in vivo at 10 mg/kg (Rattus norvegicus [12])
O=C(CN1C(=O)c2ccccc2C1=O)N/N=C/c1ccccc1[N+](=O)[O-]	57.3%	6.88 s	6.29 s	49.2%	30.3%	5.35 s	–	–	–	–	–	–
O=C(CN1C(=O)c2ccccc2C1=O)N/N=C/c1ccc(Cl)cc1	58.6%	8.91 s	7.13 s	47.8%	26.7%	5.61 s	–	–	–	–	–	–
COc1cccc(/C=N/NC(=O)CN2C(=O)c3ccccc3C2=O)c1	61.4%	4.92 s	3.94 s	49.2%	28.5%	3.21 s	–	–	–	–	–	–
O=C(CN1C(=O)c2ccccc2C1=O)N/N=C/c1ccc(O)cc1	50.6%	4.12 s	3.83 s	43.4%	23.2%	3.42 s	–	–	–	–	–	–
Cc1ccc(/C=N/NC(=O)CN2C(=O)c3ccccc3C2=O)cc1	25.3%	4.5 s	3.86 s	24.6%	17.8%	3.32 s	–	–	–	–	–	–
COc1cc(/C=N/NC(=O)CN2C(=O)c3ccccc3C2=O)ccc1O	64%	9.09 s	6.22 s	53.6%	32.1%	4.53 s	–	–	–	–	–	–
COc1cc(/C=N/NC(=O)CN2C(=O)c3ccccc3C2=O)cc(OC)c1OC	49.4%	4.21 s	4.04 s	40.5%	26.7%	3.83 s	–	–	–	–	–	–
O=C(CN1C(=O)c2ccccc2C1=O)N/N=C/c1ccccc1	17.3%	3.89 s	3.22 s	15.9%	14.2%	2.83 s	–	–	–	–	–	–
O=C(CN1C(=O)c2ccccc2C1=O)N/N=C/c1ccc([N+](=O)[O-])cc1	54.6%	6.83 s	6.45 s	43.4%	19.6%	5.39 s	–	–	–	–	–	–
O=C([O-])Cc1ccccc1Nc1c(Cl)cccc1Cl.[Na+] [DICLOFENAC SODIUM]	–	–	–	–	–	–	68%	5.06 s	60.8%	3.06 s	10.93 s	39.8%
